From article PMC12647759 (Scientific Reports, 2025)
Several values for one entry are separate records, joined by “and”; a condition that tells them apart may be missing. Identical values can stand only once.

Assays:
Type in all cases: biochemical
human PLCγ1 = target: T1, human PLCγ1 (Homo sapiens, UniProt P19174); assay: In vitro PLC assay using fluorogenic substrate Compound 1, PLCγ1; conditions: for IC50: purified PLCγ1, fluorogenic substrate Compound 1, read-out: IC50, inhibition of PLCγ1 (hydrolysis of Compound 1)
T1 construct: expressing the full-length polypeptides of human PLCε, PLCβ4, PLCδ1 and PLCγ1 as FLAG fusions; made in house; host or cells: Expi293F cells
T1 sequence (P19174 1-1290): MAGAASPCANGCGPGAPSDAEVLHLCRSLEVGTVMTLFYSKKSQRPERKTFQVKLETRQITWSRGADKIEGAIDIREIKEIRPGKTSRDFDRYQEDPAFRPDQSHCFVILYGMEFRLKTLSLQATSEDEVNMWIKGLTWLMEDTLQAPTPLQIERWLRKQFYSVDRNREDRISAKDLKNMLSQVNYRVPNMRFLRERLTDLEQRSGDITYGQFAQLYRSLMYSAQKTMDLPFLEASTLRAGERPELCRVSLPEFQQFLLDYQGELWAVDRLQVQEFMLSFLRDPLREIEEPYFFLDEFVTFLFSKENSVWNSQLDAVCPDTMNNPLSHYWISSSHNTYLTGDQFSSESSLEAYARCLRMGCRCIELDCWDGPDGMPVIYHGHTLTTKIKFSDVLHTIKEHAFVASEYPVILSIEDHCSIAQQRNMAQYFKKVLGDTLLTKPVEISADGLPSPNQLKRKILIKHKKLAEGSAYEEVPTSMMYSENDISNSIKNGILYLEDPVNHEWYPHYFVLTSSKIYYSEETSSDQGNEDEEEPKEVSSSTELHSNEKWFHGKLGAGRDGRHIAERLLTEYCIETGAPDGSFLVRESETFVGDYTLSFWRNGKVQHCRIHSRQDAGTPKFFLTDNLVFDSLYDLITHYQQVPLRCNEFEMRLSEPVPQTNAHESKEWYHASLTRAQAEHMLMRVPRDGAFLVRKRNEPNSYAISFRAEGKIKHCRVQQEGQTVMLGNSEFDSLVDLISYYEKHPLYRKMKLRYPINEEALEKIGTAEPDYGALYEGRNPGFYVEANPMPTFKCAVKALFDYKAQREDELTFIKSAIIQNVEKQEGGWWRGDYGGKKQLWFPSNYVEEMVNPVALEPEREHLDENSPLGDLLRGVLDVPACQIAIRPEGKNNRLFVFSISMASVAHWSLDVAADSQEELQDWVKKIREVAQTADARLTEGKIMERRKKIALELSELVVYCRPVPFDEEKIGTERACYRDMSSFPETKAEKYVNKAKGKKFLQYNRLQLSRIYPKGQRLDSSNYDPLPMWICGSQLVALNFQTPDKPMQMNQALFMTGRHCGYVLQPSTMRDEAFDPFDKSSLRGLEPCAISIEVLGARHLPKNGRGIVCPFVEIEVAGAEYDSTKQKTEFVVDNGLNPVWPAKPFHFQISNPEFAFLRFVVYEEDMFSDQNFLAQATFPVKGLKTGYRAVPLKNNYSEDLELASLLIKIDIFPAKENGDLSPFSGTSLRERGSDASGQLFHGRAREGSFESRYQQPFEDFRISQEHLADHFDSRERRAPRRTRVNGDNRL
Experimental: (§1) Ten µl of 2 × substrate solutions (50 mM HEPES pH7.2, 200 mM NaCl, 0.2 mM CaCl2, 0.4 mM DTT, 0.4 µM EDTA, 0.02% gelatin, 0.2% sodium cholate and 60 µM Compound 1) were added to each well of a 384-well plate (CONING #3573) containing 10 µl of purified PLCε (120 ng) and incubated with shaking at 30 °C for 3 h. After terminating the reaction by the addition of 2 µl of 5 mM EDTA, the fluorescence emission was measured at 520 nm with the excitation at 485 nm by a microplate reader (POLARstar Omega-25). For measuring inhibition by compounds for HTS, the reactions were conducted at RIKEN Center for Sustainable Resource Science (CSRS) as described above except that 5 µl of compound solution and 5 µl of purified PLCe (120 ng) were added to each well. Solution dispensing and fluorescence detection were conducted by using an automated dispenser (EDR-384, Biotec) and a hybrid multi-mode microplate reader (Synergy H4, Biotec), respectively. For determination of the IC50 values for ZPT and Zn^2+, the EDTA concentration was reduced to one-tenth to avoid its zinc-chelating effect. For assay of the other PLC classes, the reactions were performed similarly except that PLCβ4 (5 ng), PLCδ1 (0.1 ng) or PLCγ1 (0.3 ng) was used instead of PLCε.

human PLCδ1 = target: T2, human PLCδ1 (Homo sapiens, UniProt P51178); assay: In vitro PLC assay using fluorogenic substrate Compound 1, PLCδ1; conditions: for IC50: purified PLCδ1, fluorogenic substrate Compound 1, read-out: IC50, inhibition of PLCδ1 (hydrolysis of Compound 1)
T2 construct: expressing the full-length polypeptides of human PLCε, PLCβ4, PLCδ1 and PLCγ1 as FLAG fusions; made in house; host or cells: Expi293F cells
T2 sequence (P51178 1-756): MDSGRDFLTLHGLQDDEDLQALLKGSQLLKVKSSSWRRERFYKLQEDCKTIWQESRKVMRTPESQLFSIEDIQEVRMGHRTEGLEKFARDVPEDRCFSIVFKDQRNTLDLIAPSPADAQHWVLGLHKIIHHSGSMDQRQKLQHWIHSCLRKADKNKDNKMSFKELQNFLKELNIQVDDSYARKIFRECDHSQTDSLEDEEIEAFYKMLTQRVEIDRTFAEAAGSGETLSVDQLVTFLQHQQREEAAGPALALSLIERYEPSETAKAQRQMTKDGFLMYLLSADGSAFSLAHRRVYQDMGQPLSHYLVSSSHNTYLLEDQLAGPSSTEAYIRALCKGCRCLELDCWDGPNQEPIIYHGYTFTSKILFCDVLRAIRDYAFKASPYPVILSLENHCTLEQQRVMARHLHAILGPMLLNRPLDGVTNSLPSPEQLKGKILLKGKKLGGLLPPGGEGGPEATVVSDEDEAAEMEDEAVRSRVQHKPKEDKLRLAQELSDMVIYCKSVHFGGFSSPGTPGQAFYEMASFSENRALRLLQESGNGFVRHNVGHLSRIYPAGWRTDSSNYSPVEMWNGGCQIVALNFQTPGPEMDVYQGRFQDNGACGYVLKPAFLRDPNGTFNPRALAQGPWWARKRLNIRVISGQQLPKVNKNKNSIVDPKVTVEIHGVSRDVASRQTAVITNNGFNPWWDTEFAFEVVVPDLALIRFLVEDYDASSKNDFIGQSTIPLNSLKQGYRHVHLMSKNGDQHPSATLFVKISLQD
Experimental: as §1

human PLCε = target: T3, human PLCε (Homo sapiens, UniProt Q9P212); assay: In vitro PLC assay using fluorogenic substrate Compound 1 (HTS), PLCε; conditions: for IC50: purified full-length PLCε, fluorogenic substrate Compound 1, read-out: IC50, inhibition of PLCε (hydrolysis of Compound 1)
T3 construct: expressing the full-length polypeptides of human PLCε, PLCβ4, PLCδ1 and PLCγ1 as FLAG fusions; made in house; host or cells: Expi293F cells
T3 sequence (Q9P212 whole entry, the tested form may be a part): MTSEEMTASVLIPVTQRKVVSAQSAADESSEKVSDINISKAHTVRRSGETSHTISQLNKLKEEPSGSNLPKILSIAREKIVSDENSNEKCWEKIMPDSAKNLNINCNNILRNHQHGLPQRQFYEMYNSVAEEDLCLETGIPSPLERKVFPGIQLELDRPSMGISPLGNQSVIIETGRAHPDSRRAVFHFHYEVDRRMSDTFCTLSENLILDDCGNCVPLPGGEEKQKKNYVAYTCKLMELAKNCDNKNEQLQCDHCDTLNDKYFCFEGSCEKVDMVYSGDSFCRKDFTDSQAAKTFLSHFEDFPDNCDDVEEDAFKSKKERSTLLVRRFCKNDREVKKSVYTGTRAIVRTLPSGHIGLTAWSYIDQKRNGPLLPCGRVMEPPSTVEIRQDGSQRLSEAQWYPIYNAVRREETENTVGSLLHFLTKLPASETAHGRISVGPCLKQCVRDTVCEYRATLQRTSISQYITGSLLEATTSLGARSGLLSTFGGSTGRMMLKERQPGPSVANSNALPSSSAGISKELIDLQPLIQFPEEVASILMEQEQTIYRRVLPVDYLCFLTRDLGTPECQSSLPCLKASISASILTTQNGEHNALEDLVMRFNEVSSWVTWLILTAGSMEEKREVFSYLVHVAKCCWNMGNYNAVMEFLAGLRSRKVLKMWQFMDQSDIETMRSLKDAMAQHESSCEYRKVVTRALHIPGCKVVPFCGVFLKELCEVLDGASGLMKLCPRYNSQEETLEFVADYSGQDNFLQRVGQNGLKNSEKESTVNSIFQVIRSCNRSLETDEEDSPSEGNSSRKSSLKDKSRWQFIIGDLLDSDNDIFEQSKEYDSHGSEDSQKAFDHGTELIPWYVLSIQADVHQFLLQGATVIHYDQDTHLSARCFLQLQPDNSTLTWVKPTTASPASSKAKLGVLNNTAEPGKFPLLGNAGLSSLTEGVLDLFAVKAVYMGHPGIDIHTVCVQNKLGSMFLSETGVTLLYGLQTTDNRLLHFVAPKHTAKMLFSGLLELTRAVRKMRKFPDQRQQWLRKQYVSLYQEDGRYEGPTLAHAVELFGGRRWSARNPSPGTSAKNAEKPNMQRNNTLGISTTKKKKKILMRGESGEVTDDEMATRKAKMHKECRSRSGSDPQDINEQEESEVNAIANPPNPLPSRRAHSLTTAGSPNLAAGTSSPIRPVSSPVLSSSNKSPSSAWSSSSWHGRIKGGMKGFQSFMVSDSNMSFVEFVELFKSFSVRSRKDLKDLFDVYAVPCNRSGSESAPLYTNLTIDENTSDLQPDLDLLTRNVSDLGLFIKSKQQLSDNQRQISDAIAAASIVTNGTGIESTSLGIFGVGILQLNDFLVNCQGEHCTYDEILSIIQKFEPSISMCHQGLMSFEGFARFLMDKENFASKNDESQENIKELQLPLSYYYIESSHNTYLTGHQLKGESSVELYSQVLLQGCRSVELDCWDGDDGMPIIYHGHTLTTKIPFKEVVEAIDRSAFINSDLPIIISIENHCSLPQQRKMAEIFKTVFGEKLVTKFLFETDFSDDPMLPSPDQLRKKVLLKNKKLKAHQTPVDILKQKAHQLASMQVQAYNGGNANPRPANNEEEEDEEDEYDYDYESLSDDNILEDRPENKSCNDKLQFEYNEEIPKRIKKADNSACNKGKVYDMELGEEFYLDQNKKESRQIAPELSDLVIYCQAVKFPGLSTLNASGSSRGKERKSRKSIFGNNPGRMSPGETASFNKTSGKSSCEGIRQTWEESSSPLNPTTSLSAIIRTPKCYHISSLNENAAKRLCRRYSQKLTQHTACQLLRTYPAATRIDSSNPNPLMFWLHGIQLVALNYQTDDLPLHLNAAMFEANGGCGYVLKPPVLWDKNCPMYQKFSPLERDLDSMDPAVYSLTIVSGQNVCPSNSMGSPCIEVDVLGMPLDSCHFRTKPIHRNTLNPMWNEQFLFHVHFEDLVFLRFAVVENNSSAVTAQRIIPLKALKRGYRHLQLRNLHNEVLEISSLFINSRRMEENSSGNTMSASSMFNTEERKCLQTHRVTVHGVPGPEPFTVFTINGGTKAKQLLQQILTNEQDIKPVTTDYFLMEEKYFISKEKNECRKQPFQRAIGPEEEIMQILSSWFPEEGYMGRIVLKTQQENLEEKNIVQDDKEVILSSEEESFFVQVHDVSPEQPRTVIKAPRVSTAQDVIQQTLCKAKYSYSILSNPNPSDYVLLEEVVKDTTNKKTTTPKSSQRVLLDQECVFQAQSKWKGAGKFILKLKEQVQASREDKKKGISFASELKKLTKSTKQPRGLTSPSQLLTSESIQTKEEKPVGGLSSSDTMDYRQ
Experimental: For measuring inhibition by compounds for HTS, the reactions were conducted at RIKEN Center for Sustainable Resource Science (CSRS) as described above except that 5 µl of compound solution and 5 µl of purified PLCe (120 ng) were added to each well. […] For determination of the IC50 values for ZPT and Zn^2+, the EDTA concentration was reduced to one-tenth to avoid its zinc-chelating effect. For assay of the other PLC classes, the reactions were performed similarly except that PLCβ4 (5 ng), PLCδ1 (0.1 ng) or PLCγ1 (0.3 ng) was used instead of PLCε.

[1] = Compound 1 as substrate, varying concentrations

IC50 (human PLCγ1) [nM]	IC50 (human PLCδ1)	IC50 (human PLCε) [nM]	Compound	inhibitory activity toward PLCγ (human PLCγ1; [1])	inhibitory activity toward PLCδ (human PLCδ1; [1])	PLCε inhibitory activity of ZnSO4 on addition of excess sodium pyrithione (human PLCε; 5 µM ZnSO4, varying concentrations of sodium pyrithione)
–	–	1200	O=S(=O)([O-])[O-].[Zn+2] [ZnSO4]	without exhibiting any noticeable inhibitory activities	without exhibiting any noticeable inhibitory activities	compromised the inhibitory activity of ZnSO4 in a dose-dependent manner
1800	7300 nM	1300	COc1ccc2c(c[n+](C)c3c4cc5c(cc4ccc23)OCO5)c1OC [chelerythrine]	–	–	–
8700	400 nM	3100	CCCCCCOc1ccc2c(c1)Oc1cc(OP(=O)(O)O[C@H]3[C@H](O)[C@@H](O)[C@H](OP(=O)(O)O)[C@@H](O)[C@H]3O)ccc1C21OC(=O)c2ccccc21 (stereo partly shown) [compound 1]	–	–	–

Compound	IC50 (human PLCγ1) [nM]	IC50 (human PLCδ1)	IC50 (human PLCε) [nM]	inhibitory activity toward PLCγ (human PLCγ1; [1])	inhibitory activity toward PLCδ (human PLCδ1; [1])	PLCε inhibitory activity of ZnSO4 on addition of excess sodium pyrithione (human PLCε; 5 µM ZnSO4, varying concentrations of sodium pyrithione)
C[n+]1cc2c3c(ccc2c2ccc4cc5c(cc4c21)OCO5)OCO3 [Sanguinarine, sanguinarine]	1600	48000 nM and 47800 nM	1900	–	–	–
